Measurements: US20160213742A1, “COMPOSITIONS AND METHODS FOR THE TREATMENT OF FUNGAL INFECTIONS” (priority 2013, published 2016)

What was measured:
Format in all cases: cell-based
[1] = tested on: Neutrophils purified from human peripheral blood; assay: Human Neutrophil Transwell Migration Assay; conditions: 37° C., 45 minutes, % of the maximum migration possible
In short: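 Neutrophils (~50,000–100,000) were placed above 5-micron transwell inserts with test compound in the lower chamber and allowed to migrate 45 min at 37° C. Migrated cells were quantified by ATP luminescence; medium-only background was subtracted and values expressed as % of cells added directly to the bottom well.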

C. glabrata ATCC 90030 = conditions: C. glabrata ATCC 90030; read at 50% growth inhibition for echinocandins (24 h), 100% for amphotericin B (48 h)
Method: (§1) MIC and MEC assays were run as described in Example 31 with the following exceptions. Starting solutions of all antifungal agents were prepared in 100% DMSO. Stock concentrations were made at 50× the highest final assay concentration and serially diluted 2-fold, 16 times in a 96-well PCR plate (VWR 83007-374). Candida and Aspergillus suspensions from Sabouraud dextrose agar plate cultures were prepared in 0.85% saline at 0.5 McFarland standard (˜0.1 OD530 nm). Candida suspensions were diluted 1:500 in RPMI (MP Biomedicals, cat no. 1060124; buffered with MOPS and adjusted with NaOH to pH 7.0) to a concentration of ˜0.5-2.5×10^3 CFU/mL and Aspergillus suspensions were diluted 1:50 in RPMI to 0.4-5×10^4 CFU/mL final concentration. 98 μL of each cell suspension in RPMI were added to test wells in a 96-well assay plate (Costar cat. no. 3370). A Beckman Multimek 96 liquid handling robot was used to dispense 2 μL of each 50× stock compound into the plate containing 98 μL of each strain in RPMI (2% final solvent concentration). Plates were shaken then incubated at 35° C. for 24-48 h prior to reading. MIC values were read visually at 50% growth inhibition for echinocandins (24 h) and at 100% growth inhibition for amphotericin B (48 h). MEC values (24 h) were read with the aid of a microscope at the lowest echinocandin concentration where rounded/compact hyphal morphology was observed.

C. krusei ATCC 14243 = conditions: C. krusei ATCC 14243; read at 50% growth inhibition for echinocandins (24 h), 100% for amphotericin B (48 h)
Method: as §1

[2] = tested on: C. parapsilosis ATCC 22019; conditions: C. parapsilosis ATCC 22019; read at 50% growth inhibition for echinocandins (24 h), 100% for amphotericin B (48 h)
Method: as §1

C. albicans ATCC 90028 = conditions: C. albicans ATCC 90028; read at 50% growth inhibition for echinocandins (24 h), 100% for amphotericin B (48 h)
Method: as §1

C. tropicalis ATCC 750 = conditions: C. tropicalis ATCC 750; read at 50% growth inhibition for echinocandins (24 h), 100% for amphotericin B (48 h)
Method: as §1

A. fumigatus MYA-3626 = assay: MEC assay (Example 32); conditions: MEC values (24 h), rounded/compact hyphal morphology
Method: as §1

A. flavus ATCC MYA-3631 = assay: MEC assay (Example 32); conditions: MEC values (24 h), rounded/compact hyphal morphology
Method: as §1

A. niger ATCC 16404 = assay: MEC assay (Example 32); conditions: MEC values (24 h), rounded/compact hyphal morphology
Method: as §1

A. fumigatus ATCC 13073 = assay: MEC assay (Example 32); conditions: MEC values (24 h), rounded/compact hyphal morphology
Method: as §1

A. fumigatus MYA-4609 = assay: MEC assay (Example 32); conditions: MEC values (24 h), rounded/compact hyphal morphology
Method: as §1

Row | Compound | % Neutrophil Migration ([1]; conc 0.001 μg/mL) [%] | % Neutrophil Migration ([1]; conc 0.01 μg/mL) [%] | % Neutrophil Migration ([1]; conc 0.1 μg/mL) [%] | % Neutrophil Migration ([1]; conc 1 μg/mL) [%] | % Neutrophil Migration ([1]; conc 10 μg/mL) [%] | MIC (C. glabrata ATCC 90030) [µg/mL] | MIC (C. krusei ATCC 14243) [µg/mL] | MIC [2] [µg/mL] | MIC (C. albicans ATCC 90028) [µg/mL] | MIC (C. tropicalis ATCC 750) [µg/mL] | MEC (A. fumigatus MYA-3626) [µg/mL] | MEC (A. flavus ATCC MYA-3631) [µg/mL] | MEC (A. niger ATCC 16404) [µg/mL] | MEC (A. fumigatus ATCC 13073) [µg/mL] | MEC (A. fumigatus MYA-4609) [µg/mL]
1 | CC[C@H](C)C[C@H](C)CCCCCCCCC(=O)N[C@H]1C[C@@H](O)[C@@H](NCCN)NC(=O)[C@@H]2[C@@H](O)CCN2C(=O)[C@H]([C@H](O)CCNC(=O)[C@H](Cc2ccccc2)NC(=O)[C@H](CC(C)C)NC(=O)[C@H](CCSC)NC=O)NC(=O)[C@H]([C@H](O)[C@@H](O)c2ccc(O)cc2)NC(=O)[C@@H]2C[C@@H](O)CN2C(=O)[C@H]([C@@H](C)O)NC1=O [Compound 1] | −4.7 | 67.9 | 70.7 | −10.6 | −11.2 |  |  |  |  |  |  |  |  |  | 
2 | CC[C@H](C)C[C@H](C)CCCCCCCCC(=O)N[C@H]1C[C@@H](O)[C@@H](OCCN)NC(=O)[C@@H]2[C@@H](O)CCN2C(=O)[C@H]([C@H](O)CCNC(=O)[C@H](Cc2ccccc2)NC(=O)[C@H](CC(C)C)NC(=O)[C@H](CCSC)NC=O)NC(=O)[C@H]([C@H](O)[C@@H](O)c2ccc(O)cc2)NC(=O)[C@@H]2C[C@@H](O)CN2C(=O)[C@H]([C@@H](C)O)NC1=O [Compound 11] | −4.7 | 80.3 | 28.3 | −8.0 | −10.9 |  |  |  |  |  |  |  |  |  | 
3 | caspofungin acetate [reference compound] |  |  |  |  |  | 0.25 | 0.25 | 0.5 | 0.125 | 0.125 | 0.06 | 0.06 | 0.06 | 0.03 | 0.06
